Values quoted from earlier work, collected in patent US20260201040A1, “TREATMENT OF SICKLE CELL DISEASE” (BioLineRx Ltd., priority 2022, published 2026).

Test system: CD34+ HSCs
Conditions: short-acting CXCR4i, alone

c1cc(CN2CCCNCCNCCCNCC2)ccc1CN1CCCNCCNCCCNCC1 [plerixafor]
yield of optimal HSC numbers for gene therapy applications: does not reliably yield optimal HSC numbers
